Source: patent US11440923B2, “Substituted macrocyclic indole derivatives” (Bayer Aktiengesellschaft, priority 2017, dated 2022)
pEC50, pIC50: −log10 of the molar value. Structures can show the parent of a compound that is named as a salt. Where two headings read alike, the source gives them in different places.

What was measured:
MV-4-11 cells = assay: Antiproliferation assay MV-4-11 (Assay 7); type: cell-based; settings: 72 h, CellTiter-Glo; read-out: Antiproli MV-4-11 IC50 median
Procedure: (§1) Assessment of the Anti-Proliferative Effect of Compounds in Different Cell Lines
(§2) The impact of compounds on the proliferation of different cell lines was assessed using the CellTiter-Glo® Luminescent Cell Viability reagent from Promega (G7573).
(§3) In parallel, cells were plated in a reference (day 0) plate for time zero determination. Cells were incubated in a humidified incubator at 37° C. overnight.
(§4) Rim wells were excluded. The cells were incubated for 72 h hours in a humidified incubator at 37° C. The day 0 plate was measured by adding 30 μL/well of CTG solution (CellTiter-Glo® Luminescent Cell Viability reagent, Promega G7573) to time zero wells in the reference plate followed by a 10 minutes incubation and luminescence reading at 0.1 ms. using the PHERAstar FS microplate reader (BMG Labtech).
(§5) After 72 h incubation, the treated plates were measured in the same way as the day 0 plate mentioned above. The Bella DRC Master Sheet was used to calculate IC50s, with CI=day 0 values and C0=DMSO control values.

AMO-1 cells = assay: Antiproliferation assay AMO-1 (Assay 7); type: cell-based
Summary of the method: (§6)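 Growth inhibition is determined from ATP luminescence (CellTiter-Glo) following 72 h incubation with compound. Time-zero cells are measured the same way for baseline, and IC50s are referenced to DMSO controls.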

HMC-1-8 cells = assay: Antiproliferation assay HMC-1-8 (Assay 7); type: cell-based
Summary of the method: as §6

A2780 cells = assay: Antiproliferation assay A2780 (Assay 7); type: cell-based; settings: 72 h, CellTiter-Glo; read-out: Antiproli A2780 IC50 median
Procedure: as §1, §2, §3, §4, §5

SUDHL10 cells [1] = assay: Induction of cytotoxicity in SUDHL10 cells (Assay 6); type: cell-based; settings: 5 h, CellTiter-Glo, read-out: Cytotox SUDHL10 IC50 (median)
Summary of the method: (§7)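 Overnight seeding, 37 °C; 5 h compound exposure; CellTiter-Glo, 15 min RT shake; luminescence read. No-cell medium control.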

SNU-389 cells = assay: Antiproliferation assay SNU-389 (Assay 7); type: cell-based; settings: 72 h, read-out: Antiproli SNU-389 IC50
Procedure: as §1, §2, §3, §4, §5

SK-MEL-2 cells = assay: Antiproliferation assay SK-MEL-2 (Assay 7); type: cell-based; settings: Homo sapiens, read-out: Antiproli SK-MEL-2 IC50 median
Procedure: as §1, §2, §3, §4, §5

A-431 cells = assay: Antiproliferation assay A-431 (Assay 7); type: cell-based; settings: Homo sapiens, read-out: Antiproli A-431 IC50 median
Procedure: as §1, §2, §3, §4, §5

SUDHL5 cells [2] = assay: Induction of caspase-3/7 activity in SUDHL5 cells (Assay 4); type: cell-based
Summary of the method: (§8)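 Read-out: Caspase-Glo 3/7 luminescence (1 h, 37 °C) after cells, plated overnight, were treated with compounds for 3 h at 37 °C. Signal corrected for cell-free medium background and expressed relative to DMSO control mean.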

PA-1 cells = assay: Antiproliferation assay PA-1 (Assay 7); type: cell-based; settings: Homo sapiens, read-out: Antiproli PA-1 IC50 median
Procedure: as §1, §2, §3, §4, §5

SUDHL5 cells [3] = assay: Induction of cytotoxicity in SUDHL5 cells (Assay 6); type: cell-based; settings: 5 h, CellTiter-Glo, read-out: Cytotox SUDHL5 IC50 (median)
Summary of the method: as §7

SUDHL10 cells [4] = assay: Induction of caspase-3/7 activity in SUDHL10 cells (Assay 4); type: cell-based
Summary of the method: as §8

SUDHL5 cells [5] = assay: Antiproliferation assay SUDHL5 (Assay 7); type: cell-based
Summary of the method: as §6

SNU-16 cells = assay: Antiproliferation assay SNU-16 (Assay 7); type: cell-based; settings: Homo sapiens, read-out: Antiproli SNU-16 IC50 median
Procedure: as §1, §2, §3, §4, §5

DMS-114 cells = assay: Antiproliferation assay DMS-114 (Assay 7); type: cell-based; settings: Homo sapiens, read-out: Antiproli DM-S114 IC50 median
Procedure: as §1, §2, §3, §4, §5

MCL-1 = MCL-1 (Homo sapiens (Human), UniProt Q07820, K194A/K197A/R201A); assay: Protein-protein interaction assay MCL-1/Noxa BH3 peptide (MCL-1 assay, TR-FRET); type: binding; settings: MCL-1 Assay IC50 (median)
MCL-1, sequence (Q07820 whole entry, looked up, stated change not applied, the tested form may be a part): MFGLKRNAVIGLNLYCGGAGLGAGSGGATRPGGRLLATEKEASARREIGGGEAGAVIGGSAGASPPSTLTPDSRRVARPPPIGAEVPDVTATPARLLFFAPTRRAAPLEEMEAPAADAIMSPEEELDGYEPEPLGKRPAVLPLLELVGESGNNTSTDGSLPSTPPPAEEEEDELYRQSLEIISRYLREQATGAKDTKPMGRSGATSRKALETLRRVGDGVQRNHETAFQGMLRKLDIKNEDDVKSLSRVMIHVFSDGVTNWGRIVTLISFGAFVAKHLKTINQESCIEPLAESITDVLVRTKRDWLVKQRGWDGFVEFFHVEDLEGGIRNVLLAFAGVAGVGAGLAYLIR
Procedure: The dose-dependent inhibition by the compounds described in this invention of the interaction between MCL-1 and the BH3 domain of Noxa (both human) was determined using a steady state binding competition assay with time-resolved fluorescence energy transfer (TR-FRET) readout. For that purpose MCL-1 (amino acids 173-321, N-terminal fused to Maltose Binding Protein (MBP) SEQ ID 1)) and a synthetic Noxa BH3-derived peptide of sequence Biotin-PEG2-PEG2-PAELEVE-Nva-[…]-amide (SEQ ID 2) served as protein receptor and tracer ligand respectively. The MBP-MCL-1 was purchased from Beryllium (Bedford, Mass., USA). The expression and purification of this protein construct has been described elsewhere (DOI:10.1371/journal.pone.0125010). The Noxa BH3-derived peptide can be obtained from e.g. Biosyntan (Berlin, Germany).
For that, 100-fold concentrated DMSO solutions were prepared by serial dilutions (1:3.4) of a 2 mM stock solution in a clear, 384-well microtiter plate (Greiner Bio-One, Frickenhausen, Germany). From there, 50 nl were transferred in a dark test plate (Greiner Bio-One, Frickenhausen, Germany). The assay was initiated by addition of 2 μL of a 2,5-fold concentrated MBP-MCL-1 solution (usually for a 1 nM end concentration in 5 μL reaction volume) in aqueous assay buffer [50 mM Tris/HCl pH 7, 100 mM sodium chloride (NaCl), 50 mM potassium fluoride (KF), 0.005% Tween-20, 2 mM DTT, 0.1% bovine gamma globulin (BGG)] to the compounds in the assay plate. This was followed by a 10-minute incubation step at 22° C. for pre-equilibration of the putative complex between MBP-MCL-1 and the compounds.
The mixture was incubated in the dark for one hour at 22° C. and then overnight at 4° C. The formation of MCL-1/Noxa complexes was determined by measuring the resonance energy transfer of the anti-MBP-Eu-cryptate antibody to the streptavidin-XL665 present in the reaction.
For that purpose, the fluorescence emission at 620 nm and 665 nm after excitation at 330-350 nm was measured in a TR-FRET measuring instrument, for instance a Rubystar or a Pherastar (both from BMG Lab Technologies, Offenburg, Germany) or a Viewlux (Perkin-Elmer). The ratio of the emission at 665 nm and at 622 nm was used as indicator of the amount of MCL-1/NOXA complexes present.
The resulting data (ratio) were normalized, taking 0% inhibition as the mean value of control measurements (usually 32 data points) where all reagents were included. In this case 50 nl DMSO were used instead of compounds. […] IC50 values were determined by regression analysis based on a 4 parameter equation (minimum, maximum, IC50, Hill; Y=Max+(Min−Max)/(1+(X/IC50)^Hill) using the Screener Software (Genedata).

[6] = 72 h, CellTiter-Glo; read-out: Antiproli AMO-1 IC50 median
[7] = 72 h, CellTiter-Glo; read-out: Antiproli HMC-1-8 IC50 median
[8] = DMS-114 cells, 72 h, CellTiter-Glo
[9] = caspase-3/7 induction, 3 h; read-out: Caspase SUDHL5 EC50 (median)
[10] = caspase-3/7 induction, 3 h; read-out: Caspase SUDHL10 EC50 (median)
[11] = 72 h, CellTiter-Glo; read-out: Antiproli SUDHL5 IC50 (median)

SMILES	pIC50 (MV-4-11 cells)	pIC50 (A2780 cells)	pIC50 (SNU-389 cells; CellTiter-Glo)	pIC50 (SK-MEL-2 cells; SK-MEL-2, 72 h, CellTiter-Glo)	pIC50 (A-431 cells; A-431, 72 h, CellTiter-Glo)	pIC50 (SNU-16 cells; SNU-16, 72 h, CellTiter-Glo)	pEC50 (SUDHL5 cells [2]; [9])	pEC50 (SUDHL10 cells [4]; [10])	pIC50 (SUDHL5 cells [5]; [11])	pIC50 (AMO-1 cells; [6])	pIC50 (HMC-1-8 cells; [7])	pIC50 (PA-1 cells; PA-1, 72 h, CellTiter-Glo)	pIC50 (DMS-114 cells; [8])	pIC50 (SUDHL10 cells [1])	pIC50 (SUDHL5 cells [3])	also measured
CCc1c2c(nn1C)C(CCN1CCC(F)(F)C1)OCCCCn1c(C(=O)O)c(CCCOc3cccc4cc(F)ccc34)c3ccc(Cl)c-2c31 (single isomer, unassigned; enantiomer 1) [Example 58, 4-chloro-15-[2-(3,3-difluoropyrrolidin-1-yl)ethyl]-3-ethyl-7-{3-[(6-fluoronaphthalen-1-yl)oxy]propyl}-2-methyl-2,10,11,12,13,15-hexahydropyrazolo[4′,3′:9,10][1,6]oxazacycloundecino[8,7,6-hi]indole-8-carboxylic Acid (Enantiomer 1)]			6.65	6.14	6.31	6.87						6.96	7.09			pIC50 (SUDHL10 cells [1]; Homo sapiens, SU-DHL10, 5 h): 7.37; pIC50 (AMO-1 cells; Homo sapiens, AMO1, 72 h, 72 h, CellTiter-Glo; read-out: Antiproli AMO-1 IC50 median): 7.71; pIC50 (HMC-1-8 cells; 72 h, CellTiter-Glo, read-out: Antiproli HMC-1-8 IC50 median): 6.48; pEC50 (SUDHL5 cells [2]; Homo sapiens, SU-DHL-5, 3 h, caspase-3/7 induction, 3 h; read-out: Caspase SUDHL5 EC50 (median)): 7.59; pIC50 (SUDHL5 cells [3]; Homo sapiens, SU-DHL-5, 5 h): 7.55; pEC50 (SUDHL10 cells [4]; Homo sapiens, SU-DHL10, 3 h, caspase-3/7 induction, 3 h; read-out: Caspase SUDHL10 EC50 (median)): 7.64; pIC50 (SUDHL5 cells [5]; Homo sapiens, SU-DHL-5, 72 h, 72 h, CellTiter-Glo; read-out: Antiproli SUDHL5 IC50 (median)): 7.54
CCc1c2c(nn1C)C(CCN1CCN(C)CC1)OCCCCn1c(C(=O)O)c(CCCOc3cccc4cc(F)ccc34)c3ccc(Cl)c-2c31 (single isomer, unassigned; stereoisomer 1) [Example 69, (+)-4-chloro-3-ethyl-7-{3-[(6-fluoronaphthalen-1-yl)oxy]propyl}-2-methyl-15-[2-(4-methylpiperazin-1-yl)ethyl]-2,10,11,12,13,15-hexahydropyrazolo[4′,3′:9,10][1,6]oxazacycloundecino[8,7,6-hi]indole-8-carboxylic Acid—N-ethylethanamine Salt (Stereoisomer 1)]														6.52	6.51	pIC50 (SNU-389 cells): 5.62; pIC50 (AMO-1 cells; read-out: Antiproli AMO-1 IC50 median; 72 h, CellTiter-Glo): 6.67; pIC50 (HMC-1-8 cells; read-out: Antiproli HMC-1-8 IC50 median; 72 h, CellTiter-Glo): 5.35; pIC50 (SK-MEL-2 cells; SK-MEL-2, 72 h): 5.74; pIC50 (A-431 cells; A-431, 72 h): 5.78; pEC50 (SUDHL5 cells [2]; read-out: Caspase SUDHL5 EC50 (median); caspase-3/7 induction, 3 h): 6.60; pIC50 (PA-1 cells; PA-1, 72 h): 6.10; pEC50 (SUDHL10 cells [4]; read-out: Caspase SUDHL10 EC50 (median); caspase-3/7 induction, 3 h): 6.82; pIC50 (SUDHL5 cells [5]; read-out: Antiproli SUDHL5 IC50 (median); 72 h, CellTiter-Glo): 6.62; pIC50 (SNU-16 cells; SNU-16, 72 h): 5.83; pIC50 (DMS-114 cells; DMS-114, 72 h): 6.12
Cc1c2c(nn1C)C(CCN1CCOCC1)OCCCCn1c(C(=O)O)c(CCCOc3cccc4ccccc34)c3cccc-2c31 (stereo not shown) [Example 06]	4.64	< 4.48														

Now from value to molecule, other results behind:

pIC50 (MV-4-11 cells)	pIC50 (A2780 cells)	pIC50 (SNU-389 cells; CellTiter-Glo)	pIC50 (SK-MEL-2 cells; SK-MEL-2, 72 h, CellTiter-Glo)	pIC50 (A-431 cells; A-431, 72 h, CellTiter-Glo)	pIC50 (SNU-16 cells; SNU-16, 72 h, CellTiter-Glo)	pEC50 (SUDHL5 cells [2]; [9])	pEC50 (SUDHL10 cells [4]; [10])	pIC50 (SUDHL5 cells [5]; [11])	SMILES	pIC50 (AMO-1 cells; [6])	pIC50 (HMC-1-8 cells; [7])	pIC50 (PA-1 cells; PA-1, 72 h, CellTiter-Glo)	pIC50 (DMS-114 cells; [8])	pIC50 (SUDHL10 cells [1])	pIC50 (SUDHL5 cells [3])	also measured
6.74	5.39								Cc1c2c(nn1C)C(CCN1CCOCC1)OCCCCn1c(C(=O)O)c(CCCOc3cccc4ccccc34)c3ccc(F)c-2c31 (stereo not shown) [Example 07]	6.33	5.79					
		6.51	6.30	6.38	5.95	7.08	7.41	7.03	CCc1c2c(nn1C)C(CCCN1CCOCC1)OCCCCn1c(C(=O)O)c(CCCOc3cccc4cc(F)ccc34)c3ccc(Cl)c-2c31 (single isomer, unassigned; enantiomer 1) [Example 66, (+)-4-chloro-3-ethyl-7-{3-[(6-fluoronaphthalen-1-yl)oxy]propyl}-2-methyl-15-[3-(morpholin-4-yl)propyl]-2,10,11,12,13,15-hexahydropyrazolo[4′,3′:9,10][1,6]oxazacycloundecino[8,7,6-hi]indole-8-carboxylic Acid (Enantiomer 1)]	7.55	5.94	6.08	6.12	7.26	6.96	pIC50 (MCL-1): 9.27
		6.52	6.52	6.44	6.66	7.44	7.64	7.40	CCc1c2c(nn1C)C(CCN1CCOCC1)N(C)CCCCn1c(C(=O)O)c(CCCOc3cccc4cc(F)ccc34)c3ccc(Cl)c-2c31 (single isomer, unassigned) [Example 94, 4-chloro-3-ethyl-7-{3-[(6-fluoronaphthalen-1-yl)oxy]propyl}-2,14-dimethyl-15-[2-(morpholin-4-yl)ethyl]-10,11,12,13,14,15-hexahydro-2H-pyrazolo[3′,4′:8,9][1,6]diazacycloundecino[10,11,1-hi]indole-8-carboxylic Acid]	7.38	6.11	6.66	6.88		7.40	
